{"source": "patent US20160045440A1", "about": "“FORMULATION OF AMORPHOUS CALCIUM L-5-METHYLTETRAHYDROFOLATE (L-5-MTHF-Ca)” (CHEMO RESEARCH, S.L., priority 2013, published 2016)", "key": {"[1]": {"conditions": "storage time of one month at 40° C.; cited from earlier work"}, "[2]": {"assay": "Stability of powder mixtures of amorphous calcium L-5-methylfolate with stabilizing agents (1:10) on storage", "assay_type": "physicochemical", "conditions": "5° C. for one month; ALC:stabilizing agent 1:10", "description": "Powder mixtures of amorphous calcium L-5-methylfolate with each of the stabilizing agents disclosed in the following table were prepared. In all the cases, the mixture contained a weight amount of calcium L-5-methylfolate to stabilizing agent of 1:10."}, "[3]": {"assay": "Stability of amorphous calcium L-5-methylfolate and cysteine at weight ratios 1:0 to 1:33 on storage", "assay_type": "physicochemical"}}}
{"smiles": "CN1c2c(nc(N)[nH]c2=O)NC[C@@H]1CNc1ccc(C(=O)N[C@@H](CCC(=O)[O-])C(=O)[O-])cc1.[Ca+2]", "note": "[Metafolin, Calcium L-5-methylfolate]", "values": [{"measurement": "Metafolin that remains in the compositions obtained by granulation", "setting": "[1]", "value": 60, "unit": "%"}]}
{"smiles": "CN1c2c(nc(N)[nH]c2=O)NC[C@@H]1CNc1ccc(C(=O)N[C@@H](CCC(=O)[O-])C(=O)[O-])cc1.[Ca+2]", "note": "[Amorphous Calcium L-5-methylfolate (ALC), N-{4-[[((6S)-2-amino-1,4,5,6,7,8-hexahydro-5-methyl-4-oxo-6-pteridinyl)methyl]amino]benzoyl}-L-glutamic acid, calcium salt]", "values": [{"measurement": "Assay (%) of Calcium L-5-methylfolate that remains in the mixture", "setting": "[2]", "value": 91.02, "unit": "%"}, {"measurement": "Related substances (%) D-Mefox", "setting": "[2]", "value": 0.50, "unit": "%"}, {"measurement": "Related substances (%) HO-MeTHFA", "setting": "[2]", "value": 1.18, "unit": "%"}, {"measurement": "Related substances (%) L-Mefox", "setting": "[2]", "value": 4.27, "unit": "%"}, {"measurement": "Related substances (%) TOTAL impurities", "setting": "[2]", "value": 8.0, "unit": "%"}, {"measurement": "Assay (%)", "setting": "[3]; 5° C. for 1 month", "value": 99.59, "unit": "%"}, {"measurement": "Related substances (%) D-Mefox", "setting": "[3]; 5° C. for 1 month", "value": 0.42, "unit": "%"}, {"measurement": "Related substances (%) HO-MeTHFA", "setting": "[3]; 5° C. for 1 month", "value": 1.80, "unit": "%"}, {"measurement": "Related substances (%) L-Mefox", "setting": "[3]; 5° C. for 1 month", "value": 2.52, "unit": "%"}, {"measurement": "Related substances (%) TOTAL impurities", "setting": "[3]; 5° C. for 1 month", "value": 5.59, "unit": "%"}, {"measurement": "Assay (%)", "setting": "[3]; 5° C. for 3 months", "value": 96.39, "unit": "%"}, {"measurement": "Related substances (%) D-Mefox", "setting": "[3]; 5° C. for 3 months", "value": 0.32, "unit": "%"}, {"measurement": "Related substances (%) HO-MeTHFA", "setting": "[3]; 5° C. for 3 months", "value": 1.34, "unit": "%"}, {"measurement": "Related substances (%) L-Mefox", "setting": "[3]; 5° C. for 3 months", "value": 2.74, "unit": "%"}, {"measurement": "Related substances (%) TOTAL impurities", "setting": "[3]; 5° C. for 3 months", "value": 5.74, "unit": "%"}, {"measurement": "Assay (%)", "setting": "[3]; 25° C./60% HR for 1 month", "value": 89.13, "unit": "%"}, {"measurement": "Related substances (%) D-Mefox", "setting": "[3]; 25° C./60% HR for 1 month", "value": 0.71, "unit": "%"}, {"measurement": "Related substances (%) HO-MeTHFA", "setting": "[3]; 25° C./60% HR for 1 month", "value": 1.75, "unit": "%"}, {"measurement": "Related substances (%) L-Mefox", "setting": "[3]; 25° C./60% HR for 1 month", "value": 4.68, "unit": "%"}, {"measurement": "Related substances (%) TOTAL impurities", "setting": "[3]; 25° C./60% HR for 1 month", "value": 9.19, "unit": "%"}, {"measurement": "Assay (%)", "setting": "[3]; 25° C./60% HR for 3 months", "value": 84.03, "unit": "%"}, {"measurement": "Related substances (%) D-Mefox", "setting": "[3]; 25° C./60% HR for 3 months", "value": 0.57, "unit": "%"}, {"measurement": "Related substances (%) HO-MeTHFA", "setting": "[3]; 25° C./60% HR for 3 months", "value": 1.44, "unit": "%"}, {"measurement": "Related substances (%) L-Mefox", "setting": "[3]; 25° C./60% HR for 3 months", "value": 6.49, "unit": "%"}, {"measurement": "Related substances (%) TOTAL impurities", "setting": "[3]; 25° C./60% HR for 3 months", "value": 11.95, "unit": "%"}, {"measurement": "Assay (%)", "setting": "[3]; 40° C./75% HR for 1 month", "value": 81.95, "unit": "%"}, {"measurement": "Related substances (%) D-Mefox", "setting": "[3]; 40° C./75% HR for 1 month", "value": 0.93, "unit": "%"}, {"measurement": "Related substances (%) HO-MeTHFA", "setting": "[3]; 40° C./75% HR for 1 month", "value": 1.84, "unit": "%"}, {"measurement": "Related substances (%) L-Mefox", "setting": "[3]; 40° C./75% HR for 1 month", "value": 8.97, "unit": "%"}, {"measurement": "Related substances (%) TOTAL impurities", "setting": "[3]; 40° C./75% HR for 1 month", "value": 15.57, "unit": "%"}]}
